Source: patent US9316913B2, “Underlayer film-forming material for lithography, underlayer film for lithography, and pattern formation method” (MITSUBISHI GAS CHEMICAL COMPANY, INC., priority 2011, dated 2016)

Key:
Pyrolysis temperature = type: physicochemical; conditions: thermogravimetric measurement (TG); nitrogen stream, 10° C./min
Method: An EXSTAR 6000 DSC apparatus manufactured by SII NanoTechnology Inc. was used, and about 5 mg of a sample was placed in an unsealed aluminum container and heated to 500° C. at a rate of temperature rise of 10° C./min in a nitrogen gas (30 ml/min) stream. In this time, a temperature at which a reducing portion appeared on the base line was defined as a pyrolysis temperature (Tg).

[1] = Solubility in PGME and PGMEA; type: physicochemical; conditions: 23° C.
Method: Herein, the solubility in PGME or PGMEA is defined as “Mass of resin/(Mass of resin+Mass of solvent)×100 (% by mass)”.
The amount of each compound dissolved in 1-methoxy-2-propanol (PGME) and propylene glycol monomethyl ether acetate (PGMEA) was measured at 23° C., and the results were evaluated according to the following criteria.
Evaluation A: 10% by weight or more
Evaluation B: 3% by weight or more and less than 10% by weight
Evaluation C: less than 3% by weight

Oc1ccc2c3c(ccc2c1)Oc1ccc2cc(O)ccc2c1C3c1ccc(-c2ccccc2)cc1 [BisN-1]
pyrolysis temperature (Pyrolysis temperature): 410 °C | solubility in PGME and PGMEA ([1]; 1-methoxy-2-propanol (PGME) and propylene glycol monomethyl ether acetate (PGMEA)): ≥ 20 % by weight | solubility in PGME and PGMEA (Evaluation) [1]: A (10% by weight or more)

Oc1ccc2ccc3c(c2c1)C(c1ccc(-c2ccccc2)cc1)c1c(ccc2ccc(O)cc12)O3 [BisN-2]
pyrolysis temperature (Pyrolysis temperature): 410 °C | solubility in PGME and PGMEA (Evaluation) [1]: B (3% by weight or more and less than 10% by weight)

Oc1cccc2c3c(ccc12)C(c1ccc(-c2ccccc2)cc1)c1ccc2c(O)cccc2c1O3 [BisN-3]
pyrolysis temperature (Pyrolysis temperature): 410 °C | solubility in PGME and PGMEA (Evaluation) [1]: B (3% by weight or more and less than 10% by weight)

Oc1cccc2c3c(ccc12)Oc1ccc2c(O)cccc2c1C3c1ccc(-c2ccccc2)cc1 [BisN-4]
pyrolysis temperature (Pyrolysis temperature): 410 °C | solubility in PGME and PGMEA (Evaluation) [1]: B (3% by weight or more and less than 10% by weight)

Oc1ccc2ccc3c(c2c1)Oc1c(ccc2ccc(O)cc12)C3c1ccc(-c2ccccc2)cc1 [BisN-5]
pyrolysis temperature (Pyrolysis temperature): 410 °C | solubility in PGME and PGMEA (Evaluation) [1]: B (3% by weight or more and less than 10% by weight)

Oc1cc2ccccc2c2c1Oc1c(O)cc3ccccc3c1C2c1ccc(-c2ccccc2)cc1 [BisN-6]
pyrolysis temperature (Pyrolysis temperature): 410 °C | solubility in PGME and PGMEA (Evaluation) [1]: B (3% by weight or more and less than 10% by weight)

Oc1ccc2c3c(ccc2c1)Oc1ccc2cc(O)ccc2c1C3c1cccc2ccccc12 [BisN-7]
pyrolysis temperature (Pyrolysis temperature): 415 °C | solubility in PGME and PGMEA (Evaluation) [1]: B (3% by weight or more and less than 10% by weight)

Oc1ccc2c3c(ccc2c1)Oc1ccc2cc(O)ccc2c1C3c1cc2ccccc2c2ccccc12 [BisN-8]
pyrolysis temperature (Pyrolysis temperature): 415 °C | solubility in PGME and PGMEA (Evaluation) [1]: B (3% by weight or more and less than 10% by weight)

Oc1ccc2c3c(ccc2c1)Oc1ccc2cc(O)ccc2c1C3c1ccc2ccc3cccc4ccc1c2c34 [BisN-9]
pyrolysis temperature (Pyrolysis temperature): 420 °C | solubility in PGME and PGMEA (Evaluation) [1]: B (3% by weight or more and less than 10% by weight)

Oc1ccc2c3c(ccc2c1)Oc1ccc2cc(O)ccc2c1C31CCCCC1 [BisN-10]
pyrolysis temperature (Pyrolysis temperature): 400 °C | solubility in PGME and PGMEA (Evaluation) [1]: B (3% by weight or more and less than 10% by weight)

Oc1ccc2c3c(ccc2c1)Oc1ccc2cc(O)ccc2c1C31c2ccccc2-c2ccccc21 [BisN-11]
pyrolysis temperature (Pyrolysis temperature): 450 °C | solubility in PGME and PGMEA (Evaluation) [1]: B (3% by weight or more and less than 10% by weight)

Oc1ccc2c3c(ccc2c1)Oc1ccc2cc(O)ccc2c1C3c1ccc(C2c3c(ccc4cc(O)ccc34)Oc3ccc4cc(O)ccc4c32)cc1 [BisN-12]
pyrolysis temperature (Pyrolysis temperature): 410 °C | solubility in PGME and PGMEA (Evaluation) [1]: B (3% by weight or more and less than 10% by weight)

Oc1ccc2c3c(ccc2c1)Oc1ccc2cc(O)ccc2c1C3c1ccc(-c2ccc(C3c4c(ccc5cc(O)ccc45)Oc4ccc5cc(O)ccc5c43)cc2)cc1 [BisN-13]
pyrolysis temperature (Pyrolysis temperature): 410 °C | solubility in PGME and PGMEA (Evaluation) [1]: B (3% by weight or more and less than 10% by weight)

Oc1ccc2c3c(ccc2c1)Oc1ccc2cc(O)ccc2c1C3c1cc(C2c3c(ccc4cc(O)ccc34)Oc3ccc4cc(O)ccc4c32)cc(C2c3c(ccc4cc(O)ccc34)Oc3ccc4cc(O)ccc4c32)c1 [BisN-14]
pyrolysis temperature (Pyrolysis temperature): 410 °C | solubility in PGME and PGMEA (Evaluation) [1]: B (3% by weight or more and less than 10% by weight)
